Experiments:
[1] = test system: LoVo; assay: Anti-proliferative activity, CellTiter-Glo, 72 hours: LoVo; type: cell-based, human; settings: Homo sapiens, LoVo (colorectal cancer), Cell-Titre-Glo
Method: (§1) Anti-proliferative activity of BTM compounds. The anti-proliferative activities of Compound A197 and Compound B19 were compared to 4EGI-1 (a known cancer cell growth inhibitor) in a panel of 99 tumor lines. Methods: A panel of 96 tumor and 3 normal cell lines were tested for sensitivity to the test compound. The cell lines were cultured in standard media and pipetted into 96-well plates at the required plating densities. The cells were acclimated for 24 hours prior to compound testing. Compound was prepared as a stock of 20 mM in DMSO. To prepare dose response curves compound was serially diluted in DMSO and dispensed into the plate wells using a Tecan D300e digital dispenser. The final DMSO concentration was 0.15%. After 72 hours of incubation cell number was determined using the CellTiter-Glo® protocol according to the manufacturers instructions (Promega). In this assay, ATP is measured as a surrogate of cell number. The activity of the compound is determined by comparing untreated cells with treated cells and calculating the % of signal retained. Compound activity is measured as an EC50 of maximum level of efficacy and the two are used to compute an activity area. The table below provides a comparison of activity in a data sample.

[2] = test system: HCT-116; assay: Anti-proliferative activity, CellTiter-Glo, 72 hours: HCT-116; type: cell-based, human; settings: Homo sapiens, HCT-116 (colorectal cancer), Cell-Titre-Glo
Method: as §1

[3] = test system: HK-2; assay: Anti-proliferative activity, CellTiter-Glo, 72 hours: HK-2; type: cell-based, human; settings: Homo sapiens, HK-2 (kidney epilithial), Cell-Titre-Glo
Method: as §1

[4] = Single rising-dose mouse pharmacokinetics (PK) experiment; type: in vivo, CD-1 mice; settings: for PK properties: mouse PK data
Method: FIG. 9 is a graph of mouse pharmacokinetics of a single rising dose PK of Compound A197 in female CD-1 mice. Compound was administered orally with the indicated dose. Blood was drawn by tail-bleed at the appropriate times and Compound A197 plasma levels determined by LC-MS. All values, mean±SD (n=3 mice per group).
A single rising-dose mouse pharmacokinetics (PK) experiment was performed at PGP-52 TI 10, 20, 40, 150 and 300 mg/kg Compound A197. Female CD-1 mice (20-30 grams in weight) were dosed by oral gavage or by intravenous injection with A197 dissolved in 1% NMP, 0.3% Tween-80 in 0.5% methylcellulose at a dose volume of 10 ml/kg. Following compound dosing, blood was collected by tail vein bleed into K2EDTA tubes at 30 minutes, 1, 3, 5, 7, 24 an 48 hrs following dosing. Plasma (5 μL) from A197 dosed animals was acidified with […] and 1% ammonium formate in methanol to precipitate protein and delipidate plasma. The material was centrifuged at 1000× and a 120 μL sample of the supernatant was then dried under vacuum. The deproteinated and delipidated residue was resuspended in 200 μL of 1% ammonium formate in methanol and the centrifugation and drying process repeated. The dried material is then resuspended in 100 μL of a mixture of 2 parts methanol: 1 part acetonitrile: 1 part water. A 10 μL sample of this material is then injected onto a Xbridge C18 2.5 μM, 3×30 mm, XP column attached to a TSQ Vantage LC/MS system for quantitation.

[5] = test system: BJAB; assay: Total cellular GSH levels (GSH-Glo): BJAB; type: cell-based, human; settings: 4 hrs, mean ± std. dev.
Method: (§2) NHLF, BJAB, SU-DHL-2, and HCT-116 cells were treated with Compound A197 for 4 hours prior to lysate harvest. Total cellular glutathione (GSH) levels were determined using a luminescent endpoint (GSH-Glo, Promega). Cell proliferation was determined using Cell-Titre Glo following 72 hours of compound treatment. All data shown is mean±SD of three biological replicates.

[6] = test system: NHLF; assay: Apoptosis, 72 hr: NHLF; type: cell-based, human
[7] = test system: SU-DHL-2; assay: Total cellular GSH levels (GSH-Glo): SU-DHL-2; type: cell-based, human; settings: 4 hrs, mean ± std. dev.
Method: as §2

[8] = test system: DNA Damage; assay: High content imaging screen: DNA damage (Histone H2A.x phosphorylation); type: cell-based; settings: Histtone H2A.x phosphorylation as marker
Method: Mechanism of Action Screens A series of broad high content imaging, transcriptomic, metabolomic, and CRISPR KO screens were performed to link Compound A197 activity to a probable method of action. The outcome of these screens included two notable observations.

[9] = Homo sapiens, read-out: GSH IC50 (Abs)

SMILES | IC50 [1] [nM] | IC50 [2] [nM] | IC50 [3] [nM] | PK properties [4] | GSH % Max reduction [5] [%] | IC50 [5, 9] [nM] | Apoptosis, 72 hr [6] | GSH % Max reduction [7] [%] | IC50 [7, 9] [nM] | dose proportionality ([4]; single rising dose 10, 20, 40, 150 and 300 mg/kg, oral, female CD-1 mice, plasma by LC/MS) | Outcome: DNA Damage [8]
COC(=O)c1c(-c2cccc(F)c2)c(C)nn1-c1nc(C2=CCC(C(F)(F)F)CC2)c(SC(C)C)s1 (single isomer, unassigned) [Compound B19, methyl 4-(3-fluorophenyl)-1-(5-(isopropylthio)-4-(4-(trifluoromethyl)cyclohex-1-en-1-yl)thiazol-2-yl)-3-methyl-1H-pyrazole-5-carboxylate] | 116 | 343 | > 30000 | drug-like PK properties suitable for once daily dosing |  |  |  |  |  |  | 
Cc1nn(-c2nc(-c3ccc(C(F)(F)F)cc3)c(SC(C)C)s2)c(C(=O)O)c1-c1cccc(F)c1 [Compound A197, 4-(3-fluorophenyl)-1-(5-(isopropylthio)-4-(4-(trifluoromethyl)phenyl)thiazol-2-yl)-3-methyl-1H-pyrazole-5-carboxylic acid] | 123 | 295 | > 30000 | drug-like PK properties suitable for once daily dosing | 69 ± 11 | 208 ± 80 | No | 52 ± 4 | 120 ± 50 | dose proportionality was observed up to 300 mg/kg | No evidence of DNA damage using Histtone H2A.x
